In publication PMC4899770, “Core-shell nanocarriers with high paclitaxel loading for passive and active targeting” (Scientific Reports, 2016):

Settings: rat, in vivo, iv, 10 mg/kg
Experimental: Blood samples (0.5 mL) were collected from rat orbit at the time points of 0.083, 0.25, 0.5, 1, 2, 4, 6 and 8 h. The blood samples were centrifuged for 10 min at 5,000 rpm in a desktop centrifuge (Anke TGL-16G, Shanghai, China), and the plasma was separated and transferred to microcentrifuge tubes. The PTX in plasma was measured using an HPLC system after extraction with ethylether and redissolved in methanol. The pharmacokinetic parameters of PTX were calculated using a non-compartmental model with Kinetica 5.0 (Thermo Fisher Scientific Inc., MA, USA).
Two hundred microliter of plasma samples were mixed with 10 µL of internal standard (100 ng/mL diazepam in methanol), followed by vortexing for 60 s. Following mixing into 800 µL of ethylether, the sample was vortexed for 2 min and centrifuged at 12,700 g for 10 min. Subsequently, the supernatant was collected and dried under a stream of nitrogen. The residual was redisolved in 100 µL of mobile phase, votexed for 3 min and centrifuged at 10,625 g for 5 min^7. Finally, 20 µL of the supernatant was injected into the HPLC system for analysis under the conditions described below.
PTX measurement was performed on a LC-10AT HPLC system (Shimadzu, Japan). It was separated at 30 °C using an ODS-C18 column (4.6 mm × 250 mm, Diamonsil, China). The samples were eluted with acetonitrile and water (54: 46, v/v) at the flow rate of 1.0 mL/min and monitored at 227 nm^8.

In the case of Taxol^®, the “AUC0-∞” value is reported as 4.38 ± 3.57 mg·h/L, the CL is reported as 1.68 ± 1.19 L/h and the MRT is reported as 1.78 ± 0.88 h. For the same substance, the “k (elimination rate constant)” value was 2.99 ± 2.88 h⁻¹.
